Data from US11987575B2, “Tricyclic compounds as BCR-ABL inhibitors” (ASCENTAGE PHARMA (SUZHOU) CO., LTD., priority 2019, dated 2024).

What was measured:
BaF3 (T315I mutant) = BaF3 (T315I mutant) (Homo sapiens, UniProt P00519, T315I, cells depend on it); test: WST (CCK-8) anti-proliferative assay, BaF3 T315I mutant; settings: read-out: BaF3 (T315I mutant), 72 h treatment, CCK-8 readout OD 450 nm
BaF3(WT) = BaF3(WT) (Homo sapiens, UniProt P00519); test: WST (CCK-8) anti-proliferative assay, BaF3 WT; settings: read-out: BaF3(WT); BaF3 WT cells, 72 h treatment, CCK-8 readout OD 450 nm

| GI50 (BaF3 (T315I mutant)) [µM] | GI50 (BaF3(WT)) [µM] | SMILES |
| --- | --- | --- |
| 1.26 | 0.177 | CC(C)N1c2c(-c3ccn[nH]3)cc(C(=O)Nc3ccc(OC(F)(F)Cl)cc3)cc2C2CCC(NC(=O)C3CN(C)C3)C21 (stereo not shown) [Compound 29, N-(4-(chlorodifluoromethoxy)phenyl)-4-isopropyl-3-(1-methylazetidine-3-carboxamido)-5-(1H-pyrazol-5-yl)-1,2,3,3a,4,8b-hexahydrocyclopenta[b]indole-7-carboxamide] |
| 0.064 | 0.016 | CC(C)N1c2c(-c3ccn[nH]3)cc(C(=O)Nc3ccc(OC(F)(F)Cl)cc3)cc2C2CCC(NC(=O)c3cocn3)C21 (stereo not shown) [Compound 30] |
| 0.04 | 0.015 | CC(C)N1c2c(-c3ccn[nH]3)cc(C(=O)Nc3ccc(OC(F)(F)Cl)cc3)cc2C2CCC(NC(=O)C3CCOCC3)C21 (stereo not shown) [Compound 31] |
| 2.11 | 0.491 | CC(C)N1c2c(-c3ccn[nH]3)cc(C(=O)Nc3ccc(OC(F)(F)Cl)cc3)cc2C2CCC(NC(=O)C3CCN(C)CC3)C21 (stereo not shown) [Compound 32] |
| 0.109 | 0.014 | CC(C)N1c2c(-c3ccn[nH]3)cc(C(=O)Nc3ccc(OC(F)(F)Cl)cc3)cc2C2CCC(NC(=O)Nc3cnccn3)C21 (stereo not shown) [Compound 33, N-(4-(chlorodifluoromethoxy)phenyl)-4-isopropyl-3-(3-(pyrazin-2-yl)ureido)-5-(1H-pyrazol-5-yl)-1,2,3,3a,4,8b-hexahydrocyclopenta[b]indole-7-carboxamide] |
| 0.411 | 0.017 | CC(C)N1c2c(-c3ccn[nH]3)cc(C(=O)Nc3ccc(OC(F)(F)Cl)cc3)cc2C2CCC(Nc3cnccn3)C21 (stereo not shown) [Compound 34, N-(4-(chlorodifluoromethoxy)phenyl)-4-isopropyl-3-(pyrazin-2-ylamino)-5-(1H-pyrazol-5-yl)-1,2,3,3a,4,8b-hexahydrocyclopenta[b]indole-7-carboxamide] |
| 0.055 | 0.012 | CC(C)N1c2c(-c3ccn[nH]3)cc(C(=O)Nc3ccc(OC(F)(F)Cl)cc3)cc2C2CCC(N3CCCC3=O)C21 (stereo not shown) [Compound 35, N-(4-(chlorodifluoromethoxy)phenyl)-4-isopropyl-3-(2-oxopyrrolidin-1-yl)-5-(1H-pyrazol-5-yl)-1,2,3,3a,4,8b-hexahydrocyclopenta[b]indole-7-carboxamide] |
| 0.084 | 0.009 | CC(C)N1c2c(-c3ccn[nH]3)cc(C(=O)Nc3ccc(OC(F)(F)Cl)cc3)cc2C2CCC(N3CCCCC3=O)C21 (stereo not shown) [Compound 36, N-(4-(chlorodifluoromethoxy)phenyl)-4-isopropyl-3-(2-oxopiperidin-1-yl)-5-(1H-pyrazol-5-yl)-1,2,3,3a,4,8b-hexahydrocyclopenta[b]indole-7-carboxamide] |
| 0.245 | 0.025 | CC(C)N1c2c(-c3ccn[nH]3)cc(C(=O)Nc3ccc(OC(F)(F)Cl)cc3)cc2C2CCC(N3CCCS3(=O)=O)C21 (stereo not shown) [Compound 37, N-(4-(chlorodifluoromethoxy)phenyl)-3-(1,1-dioxidoisothiazolidin-2-yl)-4-isopropyl-5-(1H-pyrazol-5-yl)-1,2,3,3a,4,8b-hexahydrocyclopenta[b]indole-7-carboxamide] |
| 0.077 | 0.018 | CC(C)N1c2c(-c3ccn[nH]3)cc(C(=O)Nc3ccc(OC(F)(F)Cl)cc3)cc2C2CCC(N3CCNC3=O)C21 (stereo not shown) [Compound 38, N-(4-(chlorodifluoromethoxy)phenyl)-4-isopropyl-3-(2-oxoimidazolidin-1-yl)-5-(1H-pyrazol-5-yl)-1,2,3,3a,4,8b-hexahydrocyclopenta[b]indole-7-carboxamide] |
| 5.71 | 2.76 | CC(C)N1c2c(-c3ccn[nH]3)cc(C(=O)Nc3ccc(OC(F)(F)Cl)cc3)cc2C2CCC(NC(=O)CCC(=O)O)C21 (stereo not shown) [Compound 39, 4-((7-((4-(chlorodifluoromethoxy)phenyl)carbamoyl)-4-isopropyl-5-(1H-pyrazol-5-yl)-1,2,3,3a,4,8b-hexahydrocyclopenta[b]indol-3-yl)amino)-4-oxobutanoic acid] |
